Read-outs that look alike come from different tables or passages of the source.

Common to all, as to assay type: cell-based
For series [1], the system named is HIV-1 strain BaL (monocytotropic strain). Description: Single-round infection assay, cell-free R5 virus (monocytotropic strain). The conditions noted are these: Human immunodeficiency virus 1, BAL. Here is the method: (§1) Anti-HIV activities of the compounds were evaluated according to the previously reported procedure. In summary, the HeLa (Human cervical carcinoma: ATCC CCL-2.1) cell line was used to measure the inactivation of both the cell-free virus preparations and virus-infected cell preparations. The cells were plated in culture plates 24 h prior to each experiment. Cell-free viral preparations of HIV-1 strains IIIB (lymphocytotropic strain) and BaL (monocytotropic strain) were used for the cell-free assay. For the cell-associated assay, the SulT1 cells were infected with IIIB virus 5 days prior to the experiment. Cell-free virus and virus-infected cells were mixed with different compounds and diluted to make different concentrations. The mixture was further diluted with the buffer and added to the HeLa cells.

A short description of a further series: Cytotoxicity assay (MTS). The conditions noted are these: human, HeLa cells (ATCC CCL-2.1).
The subject of series [2] is HIV-1 strain IIIB (lymphocytotropic strain). Description: Single-round infection assay, cell-free X4 virus (lymphocytotropic strain). Particulars: Human immunodeficiency virus 1, IIIB. The procedure: as §1
Series [3] relates to cell-associated HIV-1 IIIB (infected SulT1 cells). In words: Cell-associated transmission assay (IIIB). The conditions noted are these: for EC50: Human immunodeficiency virus 1, IIIB. The procedure: as §1
A further series has as its system HIV-1. Description: Anti-HIV activity overall (cell-free and cell-associated assays) and antiviral index.
Text: Table 2, Table 3 and Table 4 illustrate the anti-HIV-1 activities against the cell-free, cell-associated, and multidrug-resistant virus and sperm inhibiting properties of the selected compounds. In summary, the anti-HIV activity of 5′-substituted derivatives of FLT and AZT (5–18) was dependent on the nature of the 5′-substituent. […] None of the other esters were active against cell-associated virus. […] The difference in the activity of fatty acyl derivatives of FLT compared to each other and FLT may be due to their differences in the rate of uptake and intracellular hydrolysis.
By design, the ester moiety in the conjugates needs to be hydrolyzed to render parent nucleosides and fatty acids to produce anti-HIV activity. The anti-HIV activities of 5′-O-ether substituted FLT and AZT (3 and 4, Scheme 2) with a stable tetradecanyl (myristyl) group were compared with hydrolyzable 5′-O-ester substituted FLT and AZT (6 and 7).
as §1

Setting [4] is: read-out: (R5) EC50, Table 2, single-round infection assay.
[5] abbreviates: Table 2, MTS, 50% effective concentration.
The mark [6] stands for this setting: read-out: (X4) EC50, Table 2, single-round infection assay.
The mark [7] stands for this setting: read-out: (CA) EC50, Table 2, cell-associated transmission assay (IIIB).
The mark [8] stands for this setting: Table 3, conjugates vs physical mixtures.
[9] abbreviates: read-out: (CA) EC50, Table 3, cell-to-cell transmission assay (IIIB).
Where [10] appears, read: read-out: (R5) EC50, Table 3, viral entry inhibition assay.
Setting [11] is: read-out: (X4) EC50, Table 3, viral entry inhibition assay.

For orientation: EC50 means the concentration at which the effect is half-maximal. With `CCCCCCCCCCCCC(OC)C(=O)OC[C@H]1O[C@@H](n2cc(C)c(=O)[nH]c2=O)C[C@@H]1F` (mixture of isomers) [Compound 13, (±)-3′-Fluoro-2′,3′-dideoxy-5′-O-(2-methoxyteradecanoyl)thymidine], the EC50 in series [1] (setting [4]) is 0.2 µM; in the series “Cytotoxicity assay (MTS)” (setting [5]), above 206 µM; in series [2] (setting [6]), 1 µM; in series [3] (setting [7]), above 206 µM. Moreover, the “anti-HIV activity (in words)” value in the series on HIV-1 was “significant anti-HIV activity at noncytotoxic concentrations”.

For `CCCCCCCCCCCCC(OC)C(=O)OC[C@H]1O[C@@H](n2cc(C)c(=O)[nH]c2=O)C[C@@H]1N=[N+]=[N-]` (mixture of isomers) [Compound 14, (±)-3′-Azido-2′,3′-dideoxy-5′-O-(2-methoxyteradecanoyl)thymidine], the EC50 in series [1] (setting [4]) is 6.7 µM; in the series “Cytotoxicity assay (MTS)” (setting [5]), above 197 µM; in series [2] (setting [6]) it was 9.7 µM; in series [3] (setting [7]), above 197 µM.

Turning to `Cc1cn([C@H]2C[C@H](N=[N+]=[N-])[C@@H](CO)O2)c(=O)[nH]c1=O` [AZT, 3′-azido-2′,3′-dideoxythymidine, reference compound], the EC50 in series [1] (Table 2, single-round infection assay, read-out: (R5) EC50) was 14.2 µM; in series [1] (Table 3, viral entry inhibition assay, read-out: (R5) EC50), 14.2 µM; in the series “Cytotoxicity assay (MTS)” (setting [5]) it was above 375 µM; in the series “Cytotoxicity assay (MTS)” (setting [8]), above 374 µM; in series [2] (Table 2, single-round infection assay, read-out: (X4) EC50) it was 10.9 µM; in series [2] (Table 3, viral entry inhibition assay, read-out: (X4) EC50) it was 10.9 µM. Moreover, the values for the EC50 in series [3] (setting [7]) and in series [3] (setting [9]) were above 375 µM and above 374 µM, respectively. Moreover, the “activity against cell-associated virus (in words)” value in series [3] was “only inconsistently and moderately active”.

As for `CCCCCCCCCCCCCCOCC1OC(n2cc(C)c(=O)[nH]c2=O)CC1F` (centres unmarked) [Compound 3, 3′-Fluoro-2′,3′-dideoxy-5′-O-(tetradecanyl)thymidine], the concentration for a half-maximal effect (EC50) in series [1] (setting [4]) was 176 µM; in the series “Cytotoxicity assay (MTS)” (setting [5]), 179 µM; in series [2] (setting [6]), 180 µM; in series [3] (setting [7]) it was above 227 µM. For the same compound, the “anti-HIV activity (in words)” value in the series on HIV-1 is given as “significantly less potent than the corresponding ester derivatives”.

With `CCCCCCCCCCCCCCOCC1OC(n2cc(C)c(=O)[nH]c2=O)CC1N=[N+]=[N-]` (centres unmarked) [Compound 4, 3′-Azido-2′,3′-dideoxy-5′-O-(tetradecanyl)thymidine], the half-maximal effective concentration (EC50) in series [1] (setting [4]) is 27.6 µM; in the series “Cytotoxicity assay (MTS)” (setting [5]), 205 µM; in series [2] (setting [6]), 125 µM; in series [3] (setting [7]) it was above 216 µM. Also, the “anti-HIV activity (in words)” value with HIV-1 is recorded as “significantly less potent than the corresponding ester derivatives”.

For the compound `CCCCCCCCCCCCCC(=O)OC[C@H]1O[C@@H](n2cc(C)c(=O)[nH]c2=O)C[C@@H]1N=[N+]=[N-]` [Compound 7], the EC50 in series [1] (setting [4]) is 5 µM; in series [1] (setting [10]), 5 µM; in the series “Cytotoxicity assay (MTS)” (setting [5]), above 629 µM; in the series “Cytotoxicity assay (MTS)” (setting [8]), above 629 µM; in series [2] (setting [6]), 3.1 µM; in series [2] (setting [11]) it was 3.1 µM. Also, the concentration giving a half-maximal response (EC50) in series [3] (setting [7]) and in series [3] (setting [9]) was above 629 µM each time.

As for `CCSCCCCCCCCCCCC(=O)OC[C@H]1O[C@@H](n2cc(C)c(=O)[nH]c2=O)C[C@@H]1N=[N+]=[N-]` [Compound 9], the EC50 in series [1] (setting [4]) was 5.2 µM; in “Cytotoxicity assay (MTS)” (setting [5]), above 101 µM; in series [2] (setting [6]), 7.7 µM; in series [3] (setting [7]) it was 90.7 µM.

Consider `CCCCCCCCCCCCCCC(=O)OC[C@H]1O[C@@H](n2cc(C)c(=O)[nH]c2=O)C[C@@H]1N=[N+]=[N-]` [Compound 10], for which the concentration giving a half-maximal response (EC50) in series [1] (setting [4]) is 4.5 µM; in “Cytotoxicity assay (MTS)” (setting [5]) it was above 611 µM; in series [2] (setting [6]), 17.9 µM; in series [3] (setting [7]) it was above 611 µM.

As for `Cc1cn([C@H]2C[C@H](F)[C@@H](COC(=O)CCCCCCCCCCCBr)O2)c(=O)[nH]c1=O` [Compound 11], the EC50 in series [1] (setting [4]) is below 0.2 µM; in the series “Cytotoxicity assay (MTS)” (setting [5]) it was above 198 µM; in series [2] (setting [6]) it was 1.8 µM; in series [3] (setting [7]), above 198 µM.

Take `Cc1cn([C@H]2C[C@H](N=[N+]=[N-])[C@@H](COC(=O)CCCCCCCCCCCBr)O2)c(=O)[nH]c1=O` [Compound 12]: the EC50 in series [1] (setting [4]) is 4.6 µM; in series [1] (setting [10]), 4.6 µM; in “Cytotoxicity assay (MTS)” (setting [5]), above 190 µM; in the series “Cytotoxicity assay (MTS)” (setting [8]), above 190 µM; in series [2] (setting [6]), 14.8 µM; in series [2] (setting [11]), 14.8 µM. Moreover, the EC50 in series [3] (setting [7]) and in series [3] (setting [9]) was above 190 µM in each case.

`CCCCCSCCCCCCCC(=O)OC[C@H]1O[C@@H](n2cc(C)c(=O)[nH]c2=O)C[C@@H]1F` [Compound 15]: the EC50 in series [1] (setting [4]) was 4.4 µM; in “Cytotoxicity assay (MTS)” (setting [5]), above 64 µM; in series [2] (setting [6]), 11.4 µM; in series [3] (setting [7]), above 64 µM.

Consider `CCCCCSCCCCCCCC(=O)OC[C@H]1O[C@@H](n2cc(C)c(=O)[nH]c2=O)C[C@@H]1N=[N+]=[N-]` [Compound 16], for which the EC50 was 12.9 µM in series [1] (setting [4]), above 202 µM in “Cytotoxicity assay (MTS)” (setting [5]), 9.3 µM in series [2] (setting [6]) and above 202 µM in series [3] (setting [7]).

Turning to `CCCCCCCCCCOCCC(=O)OC[C@H]1O[C@@H](n2cc(C)c(=O)[nH]c2=O)C[C@@H]1N=[N+]=[N-]` [Compound 17], the half-maximal effective concentration (EC50) is 2.1 µM in series [1] (setting [4]), above 209 µM in “Cytotoxicity assay (MTS)” (setting [5]), 6.7 µM in series [2] (setting [6]) and above 209 µM in series [3] (setting [7]).

Consider `CCCCCOCCCCCCCC(=O)OC[C@H]1O[C@@H](n2cc(C)c(=O)[nH]c2=O)C[C@@H]1N=[N+]=[N-]` [Compound 18], for which the EC50 in series [1] (setting [4]) is 6.1 µM; in the series “Cytotoxicity assay (MTS)” (setting [5]) it was above 209 µM; in series [2] (setting [6]), 4.8 µM; in series [3] (setting [7]), above 209 µM.

Turning to `Cc1cn(C2CC(F)C(COC(=O)CCCCCCCCCCCN)O2)c(=O)[nH]c1=O` (centres unmarked) [Compound 22, 3′-Fluoro-2′,3′-dideoxy-5′-O-(12-aminododecanoyl)thymidine], the EC50 in series [1] (setting [4]) is 1.6 µM; in “Cytotoxicity assay (MTS)” (setting [5]), above 226 µM; in series [2] (setting [6]) it was 3.4 µM; in series [3] (setting [7]), above 227 µM. The “anti-HIV activity (in words)” value in the series with HIV-1 was “comparable to other fatty acyl derivatives of FLT”.

These data come from article PMC9143043, “Synthesis and Biological Evaluation of 5′-O-Fatty Acyl Ester Derivatives of 3′-Fluoro-2′,3′-dideoxythymidine as Potential Anti-HIV Microbicides” (Molecules, 2022).
